Earlier results in article PMC5960647 (Experimental & Molecular Medicine, 2018).
Where no end group is shown, it is not given here.

Experiments:
CCKBR [1] = conditions: cited from earlier work
CCKBR [2] = conditions: dorsal root ganglion neurons, CCKBR in the same neuron; cited from earlier work

Molecule: Cc1cccc(NC(=O)N[C@@H]2N=C(c3ccccc3)c3ccccc3N(C)C2=O)c1 [L-365,260]
- effect on opioid-induced analgesia (CCKBR [1]): potentiated opioid-induced analgesia
- effect on pain threshold of administration per se (CCKBR [1]): did not affect pain threshold

Molecule: cholecystokinin octapeptide (DYMGWMDF; ends and bridges not checked; UniProt P06307 96-103, looked up) [CCK-8]
- effect on electroacupuncture analgesia (CCKBR [1]; caudate nucleus, through CCKBR): antagonism to electroacupuncture analgesia
- effect on opioid analgesia (CCKBR [1]; shown with L-365,260): inhibited opioid analgesia through CCKBR
- effect on MOR-mediated inhibition of voltage-gated calcium current (CCKBR [2]): antagonized
